A short description of data set [1]: Antioxidant activity assessed as DPPH radical scavenging activity at 100 ug/ml after 30 mins. The format is functional.
For another data set, the system named is Human alphaherpesvirus 1. Put plainly: Antiviral activity against HSV-1 infected in African green monkey Vero cells by plaque reduction assay. The format is functional. The conditions noted are these: for pEC50: Human alphaherpesvirus 1, Vero.
The nature of data set [2]: Antioxidant activity assessed as DPPH radical scavenging activity after 30 mins. The format is functional.
Data set [3] relates to Bugula neritina. Kind of data set: Antifouling activity against Bugula neritina larvae assessed as inhibition of larval settlement at 25 ug/ml after 1 hr by dissecting microscopy relative to control. The format is functional.
In data set [4] the test system is Bugula neritina. Put plainly: Antifouling activity against Bugula neritina assessed as inhibition of larval settlement after 1 hr by dissecting microscopy. The format is functional.
In data set [5] the test system is Bugula neritina. Kind of data set: Selectivity index, ratio of LC50 for Bugula neritina larvae to EC50 for antifouling activity against Bugula neritina larvae.
Data set [6] in a line: Cytotoxicity against African green monkey Vero cells assessed as reduction in cell viability by MTT assay. The format is cell-based. The conditions noted are these: chlorocebus sabaeus.
Data set [7] can be described thus: Antioxidant activity assessed as ABTS radical cation scavenging activity by measuring trolox equivalents by ABTS radical cation decolorization assay. The format is functional.

The structures appear in SMILES notation. pEC50, pIC50: −log10 of the molar value. In brackets after ≈: the same amount, converted by molar mass. Activity calls are given as the source filed them. The rule behind the calls is not given here.

Take `COC(C)CC(=O)Cc1cc(O)c(C)c(O)c1C=O` (racemic): the Activity in data set [1] was < 50%.

As to `Cc1cc(O)c(Oc2cc(C)cc(O)c2Oc2cc(C)cc(O)c2O)c(O)c1`, the outcome with Human alphaherpesvirus 1 was inactive. In data set [1], the Activity fell in the range of 81.3 to 92.8%. Also, the pIC50 in data set [2] was 4.60. The inhibition at 25 µg/mL in the data set on Bugula neritina [3] is 70.6%. The concentration giving a half-maximal response (EC50) in the data set on Bugula neritina [4] was found to be 5.48 µg/mL (≈ 14.3 µM). The “Selectivity Index” value with Bugula neritina [5] is listed as >100.

Consider `CC(=O)CCCC(c1c(C)cc(Oc2cc(C)cc(O)c2)cc1O)c1c(O)cc2c(c1O)C(=O)c1c(O)cc(O)cc1C2=O` (racemic), for which the pEC50 with Human alphaherpesvirus 1 is 5.33. Further, the CC50 in data set [6] was 109 µM. The figures for the Activity in data set [1] and in data set [7] were < 50% and 2.03 mmol/g, respectively.

On to `CCCCCC(c1c(C)cc(O)cc1O)c1c(O)cc2c(c1O)C(=O)c1c(O)cc(Oc3cc(C)cc(O)c3)cc1C2=O` (racemic) [listing 1 of 2 here], for which, in the data set with Human alphaherpesvirus 1, the result was inactive. Besides, the values for the Activity in data set [1] and in data set [7] were < 50% and 2.27 mmol/g, respectively.

As for `CCCCCC(c1c(C)cc(Oc2cc(C)cc(O)c2)cc1O)c1c(O)cc2c(c1O)C(=O)c1c(O)cc(O)cc1C2=O` (racemic) [listing 1 of 2 here], the result in the data set with Human alphaherpesvirus 1 was inactive. Moreover, the Activity was < 50% in data set [1] and 2.11 mmol/g in data set [7].

On to `O=C1O[C@H]([C@@H](O)CO)C(O)=C1O` [ASCORBIC ACID], for which the pIC50 in data set [2] was 4.34.

Regarding `CCCCC[C@H](OC)c1c(O)cc2c(c1O)C(=O)c1c(O)cc(O)cc1C2=O`, the Activity in data set [1] was < 50%. Further, the inhibition at 25 µg/mL in the data set with Bugula neritina [3] was 10 to 38%.

For the compound `C[C@H](O)CC[C@H](CO)c1c(O)cc2c(c1O)C(=O)c1c(O)cc(O)cc1C2=O`, the pEC50 in the data set with Human alphaherpesvirus 1 was 5.20. Further, in data set [6], the CC50 was found to be 50.7 µM. In addition, the Activity in data set [1] is < 50%.

`Nc1nc2c(ncn2COCCO)c(=O)[nH]1` [ACYCLOVIR] gave a pEC50 with Human alphaherpesvirus 1 of 5.52. The CC50 in data set [6] was > 1000 µM.

Turning to `Cc1cc(O)c(O)c(Oc2cc(C)cc(O)c2Oc2cc(C)cc(O)c2O)c1`, the result in the data set with Human alphaherpesvirus 1 was inactive. Also, the Activity in data set [1] fell in the range of 81.3 to 92.8%. Further, the pIC50 in data set [2] is 4.67. In the data set on Bugula neritina [3], the inhibition at 25 µg/mL was determined as 80%. Besides, the half-maximal effective concentration (EC50) with Bugula neritina [4] was 2.61 µg/mL (≈ 6.79 µM). For the same compound, in the data set with Bugula neritina [5], the “Selectivity Index” value is listed as >100.

With `CCCCCC(c1c(C)cc(Oc2cc(C)cc(O)c2)cc1O)c1c(O)cc2c(c1O)C(=O)c1c(O)cc(O)cc1C2=O` (stereo in doubt; (-)-7), the Activity in data set [7] was 1.53 to 2 mmol/g.

Turning to `Cc1cc(O)c(Oc2cc(C)cc(Oc3cc(C)cc(O)c3O)c2O)c(O)c1`, the result in the data set with Human alphaherpesvirus 1 was inactive. Besides, the Activity in data set [1] was 81.3 to 92.8%. Besides, the pIC50 in data set [2] was 4.72. The inhibition at 25 µg/mL in the data set with Bugula neritina [3] amounted to 85.3%. For the same compound, the EC50 in the data set with Bugula neritina [4] worked out at 1.59 µg/mL (≈ 4.14 µM). Moreover, the “Selectivity Index” value with Bugula neritina [5] is >100.

With `CCCCCC(c1c(O)cc(C)cc1Oc1cc(C)cc(O)c1)c1c(O)cc2c(c1O)C(=O)c1c(O)cc(O)cc1C2=O` (racemic), in the data set with Human alphaherpesvirus 1, the result was inactive. In addition, the Activity in data set [1] is < 50%; in data set [7], 2.18 mmol/g.

In the case of `Cc1cc(O)cc(Oc2cc(C)cc(O)c2)c1` [DIORCINOL], the Activity in data set [1] is < 50%. The inhibition at 25 µg/mL in the data set with Bugula neritina [3] is 10 to 38%.

Take `Cc1cc(O)cc(OC(=O)c2c(C)cc(O)cc2O)c1` [LECANORIN]: the Activity in data set [1] is < 50%. For the same compound, in the data set on Bugula neritina [3], the inhibition at 25 µg/mL was 10 to 38%.

For `Cc1c(O)cc2cc(C[C@H](C)O)oc(=O)c2c1O`, the Activity in data set [1] is < 50%.

As for `COC(=O)c1c(C)cc(O)cc1O` [METHYL ORSELLINATE], the Activity in data set [1] is < 50%. The inhibition at 25 µg/mL in the data set on Bugula neritina [3] was in the range of 10 to 38%.

With `CCCCCC(c1c(C)cc(O)cc1O)c1c(O)cc2c(c1O)C(=O)c1c(O)cc(Oc3cc(C)cc(O)c3)cc1C2=O` (stereo in doubt; (-)-6), the Activity in data set [7] was 1.65 mmol/g.

`O=C1c2cc(O)cc(O)c2C(=O)c2c1cc(O)c([C@@H](CO)CCO)c2O`: the Activity in data set [1] is < 50%. Besides, in the data set on Bugula neritina [3], the inhibition at 25 µg/mL is 10 to 38%.

Compound `CC(=O)CC[C@H](COC(C)=O)c1c(O)cc2c(c1O)C(=O)c1c(O)cc(O)cc1C2=O` gave a negative logarithm of the EC50 (pEC50) in the data set with Human alphaherpesvirus 1 of 5.51. Besides, in data set [6], the CC50 was determined as 65.1 µM. Besides, the Activity in data set [1] was < 50%. In addition, the inhibition at 25 µg/mL in the data set with Bugula neritina [3] was 10 to 38%.

As to `CC(=O)CC[C@H](CO)c1c(O)cc2c(c1O)C(=O)c1c(O)cc(O)cc1C2=O`, in the data set with Human alphaherpesvirus 1, the result was inactive. Further, the Activity in data set [1] was < 50%. For the same compound, in the data set with Bugula neritina [3], the inhibition at 25 µg/mL is 10 to 38%.

On to `CCCCCC(c1c(C)cc(O)cc1O)c1c(O)cc2c(c1O)C(=O)c1c(O)cc(Oc3cc(C)cc(O)c3)cc1C2=O` (racemic) [listing 2 of 2 here], for which, in the data set on Bugula neritina [3], the inhibition at 25 µg/mL is 10 to 38%.

With `Cc1cc(O)c(Oc2cc(C)cc(O)c2O)c(O)c1`, the Activity in data set [1] is 81.3 to 92.8%. Besides, the pIC50 in data set [2] is 4.51. The inhibition at 25 µg/mL in the data set with Bugula neritina [3] was in the range of 10 to 38%.

Consider `COC(=O)c1c(O)ccc2oc3cc(C)cc(O)c3c(=O)c12`, for which, in data set [1], the Activity is < 50%. Moreover, the inhibition at 25 µg/mL with Bugula neritina [3] was 10 to 38%.

For `Cc1cc(O)cc(O)c1O`, the Activity in data set [1] was 81.3 to 92.8%. Further, in data set [2], the pIC50 is 4.45. Moreover, the inhibition at 25 µg/mL with Bugula neritina [3] fell in the range of 10 to 38%.

Consider `CCCCCC(c1c(C)cc(Oc2cc(C)cc(O)c2)cc1O)c1c(O)cc2c(c1O)C(=O)c1c(O)cc(O)cc1C2=O` (racemic) [listing 2 of 2 here], for which the inhibition at 25 µg/mL in the data set on Bugula neritina [3] fell in the range of 10 to 38%.

For the compound `Cc1c(O)cc(CC(=O)C[C@H](C)O)c(C=O)c1O`, the Activity in data set [1] was < 50%. For the same compound, the inhibition at 25 µg/mL with Bugula neritina [3] was found to be 72.4%. Also, the EC50 in the data set with Bugula neritina [4] was 3.4 µg/mL (≈ 13.5 µM). Further, the “Selectivity Index” value with Bugula neritina [5] was >100.

In the case of `Cc1cc(OC(=O)c2c(C)cc(O)cc2O)cc(O)c1C(=O)O` [LECANORIC ACID], in data set [1], the Activity was < 50%. Besides, in the data set with Bugula neritina [3], the inhibition at 25 µg/mL lay in the range of 10 to 38%.

`COC(=O)c1c(C)cc(Oc2cc(O)cc(C)c2C(=O)O)cc1O`: the Activity in data set [1] is < 50%. Also, the inhibition at 25 µg/mL in the data set with Bugula neritina [3] was in the range of 10 to 38%.

Turning to `Cc1cc(O)cc(Oc2cc(C)cc(O)c2O)c1` [CORDYOL C], the Activity in data set [1] fell in the range of 81.3 to 92.8%. Moreover, the pIC50 in data set [2] was 4.28. For the same compound, in the data set with Bugula neritina [3], the inhibition at 25 µg/mL lay in the range of 10 to 38%.

Take `Cc1cc(O)cc(O)c1` [ORCINOL]: in data set [1], the Activity is < 50%. In addition, in the data set with Bugula neritina [3], the inhibition at 25 µg/mL lay in the range of 10 to 38%.

As to `CCCCCC(c1c(C)cc(Oc2cc(C)cc(O)c2)cc1O)c1c(O)cc2c(c1O)C(=O)c1c(O)cc(O)cc1C2=O` (stereo in doubt; (+)-7), in data set [7], the Activity was found to be 2.07 mmol/g.

Consider `C[C@]12CCC[C@@H](O1)c1c(cc3c(c1O)C(=O)c1c(O)cc(O)cc1C3=O)O2`, for which the Activity in data set [1] was < 50%. Besides, in the data set with Bugula neritina [3], the inhibition at 25 µg/mL lay within 10 to 38%.

Regarding `Cc1cc(O)cc(O)c1C(=O)O` [ORSELLINIC ACID], in data set [1], the Activity was < 50%. Besides, the inhibition at 25 µg/mL in the data set with Bugula neritina [3] was 10 to 38%.

Regarding `Cc1cc(O)cc(Oc2cc(C)c(C(=O)OCC(O)CO)c(O)c2)c1` (racemic), the Activity in data set [1] is < 50%. Further, the inhibition at 25 µg/mL in the data set on Bugula neritina [3] was found to be 91.2%. For the same compound, in the data set with Bugula neritina [4], the EC50 stood at 1.28 µg/mL (≈ 3.67 µM). Also, in the data set with Bugula neritina [5], the “Selectivity Index” value is recorded as >100.

The values above are taken from ChEMBL document CHEMBL4000243, “Anti-HSV-1, antioxidant and antifouling phenolic compounds from the deep-sea-derived fungus Aspergillus versicolor SCSIO 41502” (Bioorg Med Chem Lett, 2017).
